Test results taken from PubChem BioAssay (NCI).
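Interpolation was linear, between the two tested concentrations surrounding the appropriate level; five concentrations were tested over 48 hours in 96-well plates. TGI is the concentration that stops growth completely.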

How the values were obtained:
Experiment in all cases: NCI tumour cell line growth inhibition, 48 h
UACC-257 melanoma = system: UACC-257 melanoma
MDA-MB-231 breast = system: MDA-MB-231 breast
HCT-15 colon = system: HCT-15 colon
MOLT-4 leukemia = system: MOLT-4 leukemia
HCC-2998 colon = system: HCC-2998 colon
MALME-3M melanoma = system: MALME-3M melanoma
SF-295 CNS = system: SF-295 CNS
NCI-H460 lung = system: NCI-H460 lung
SF-268 CNS = system: SF-268 CNS
LOX IMVI melanoma = system: LOX IMVI melanoma
OVCAR-4 ovarian = system: OVCAR-4 ovarian
HOP-92 NSCLC = system: HOP-92 NSCLC
MDA-MB-435 = system: MDA-MB-435
OVCAR-5 ovarian = system: OVCAR-5 ovarian
SNB-19 CNS = system: SNB-19 CNS
K-562 leukemia = system: K-562 leukemia
HOP-62 NSCLC = system: HOP-62 NSCLC
OVCAR-3 ovarian = system: OVCAR-3 ovarian
SW-620 colon = system: SW-620 colon
RPMI-8226 leukemia = system: RPMI-8226 leukemia
SK-MEL-5 melanoma = system: SK-MEL-5 melanoma
RXF 393 renal = system: RXF 393 renal
HL-60(TB) leukemia = system: HL-60(TB) leukemia
MCF7 breast = system: MCF7 breast
M14 melanoma = system: M14 melanoma
DU-145 prostate = system: DU-145 prostate
T-47D breast = system: T-47D breast
A549 NSCLC = system: A549 NSCLC
NCI/ADR-RES ovarian = system: NCI/ADR-RES ovarian
U251 CNS = system: U251 CNS
NCI-H226 lung = system: NCI-H226 lung
KM12 colon = system: KM12 colon
TK-10 renal = system: TK-10 renal
IGROV1 ovarian = system: IGROV1 ovarian
CAKI-1 renal = system: CAKI-1 renal
SK-MEL-2 melanoma = system: SK-MEL-2 melanoma
SF-539 CNS = system: SF-539 CNS
OVCAR-8 ovarian = system: OVCAR-8 ovarian
SK-OV-3 ovarian = system: SK-OV-3 ovarian
EKVX NSCLC = system: EKVX NSCLC
UO-31 renal = system: UO-31 renal
786-0 renal = system: 786-0 renal
MDA-N = system: MDA-N
HS 578T breast = system: HS 578T breast
SNB-75 CNS = system: SNB-75 CNS
SK-MEL-28 melanoma = system: SK-MEL-28 melanoma
CCRF-CEM leukemia = system: CCRF-CEM leukemia
UACC-62 melanoma = system: UACC-62 melanoma
COLO 205 colon = system: COLO 205 colon
NCI-H522 lung = system: NCI-H522 lung
HT29 colon = system: HT29 colon
SR leukemia = system: SR leukemia
PC-3 prostate = system: PC-3 prostate
A498 renal = system: A498 renal
NCI-H23 lung = system: NCI-H23 lung
ACHN renal = system: ACHN renal

SMILES: Cc1ccc(S(=O)(=O)n2c3c(c4ccccc42)CCN2CCC(Br)C[C@@H]32)cc1 (stereo partly specified)
- TGI (UACC-257 melanoma): 21.1 µM
- TGI (MDA-MB-231 breast): 31.3 µM
- TGI (HCT-15 colon): 24.4 µM
- TGI (MOLT-4 leukemia): 25.8 µM
- TGI (HCC-2998 colon): 28.4 µM
- TGI (MALME-3M melanoma): 26.1 µM
- TGI (SF-295 CNS): 23.1 µM
- TGI (NCI-H460 lung): 30.1 µM
- TGI (SF-268 CNS): 30.8 µM
- TGI (LOX IMVI melanoma): 27.6 µM
- TGI (OVCAR-4 ovarian): 27 µM
- TGI (HOP-92 NSCLC): 32.4 µM
- TGI (MDA-MB-435): 14.4 µM
- TGI (OVCAR-5 ovarian): 31.9 µM
- TGI (SNB-19 CNS): 28.7 µM
- TGI (K-562 leukemia): 18.6 µM
- TGI (HOP-62 NSCLC): 28.5 µM
- TGI (OVCAR-3 ovarian): 23.6 µM
- TGI (SW-620 colon): 26.1 µM
- TGI (RPMI-8226 leukemia): 24.4 µM
- TGI (SK-MEL-5 melanoma): 20.2 µM
- TGI (RXF 393 renal): 26.1 µM
- TGI (HL-60(TB) leukemia): 17.4 µM
- TGI (MCF7 breast): 22.8 µM
- TGI (M14 melanoma): 25.9 µM
- TGI (DU-145 prostate): 29.1 µM
- TGI (T-47D breast): 21.8 µM
- TGI (A549 NSCLC): 31.4 µM
- TGI (NCI/ADR-RES ovarian): 32.5 µM
- TGI (U251 CNS): 24.9 µM
- TGI (NCI-H226 lung): 27.9 µM
- TGI (KM12 colon): 21.1 µM
- TGI (TK-10 renal): 29.4 µM
- TGI (IGROV1 ovarian): 22.3 µM
- TGI (CAKI-1 renal): 28.6 µM
- TGI (SK-MEL-2 melanoma): 31.7 µM
- TGI (SF-539 CNS): 31.5 µM
- TGI (OVCAR-8 ovarian): 25.1 µM
- TGI (SK-OV-3 ovarian): 31.9 µM
- TGI (EKVX NSCLC): 38.1 µM
- TGI (UO-31 renal): 24.2 µM
- TGI (786-0 renal): 30.2 µM
- TGI (MDA-N): 15.8 µM
- TGI (HS 578T breast): 28.5 µM
- TGI (SNB-75 CNS): 25.4 µM
- TGI (SK-MEL-28 melanoma): 24.5 µM
- TGI (CCRF-CEM leukemia): 35.2 µM
- TGI (UACC-62 melanoma): 25.3 µM
- TGI (COLO 205 colon): 30.2 µM
- TGI (NCI-H522 lung): 18.6 µM
- TGI (HT29 colon): 26.3 µM
- TGI (SR leukemia): 19.2 µM
- TGI (PC-3 prostate): 26.3 µM
- TGI (A498 renal): 41 µM
- TGI (NCI-H23 lung): 26.6 µM
- TGI (ACHN renal): 34.8 µM
